Measured values taken from paper PMC3843672, “Resistance to Degradation and Cellular Distribution are Important Features for the Antitumor Activity of Gomesin” (PLoS ONE, 2013).
pIC50: −log10 of the molar value. Where a SMILES comes first, the peptide text is derived from it. [ ]: non-standard residue; d: D form. d(pGlu) = O=C1CC[C@H](C(=O)O)N1; pGlu = O=C1CC[C@@H](C(=O)O)N1

Key:
[1] = system: B16 F10 mouse melanoma cell line; format: cell-based; settings: 24 h
Description: B16 F10 mouse melanoma cell line was cultured in RPMI medium supplemented with 10% fetal bovine serum (FBS; Gibco, USA), 10 U/ml penicillin and 10 µg/ml streptomycin. Cells were cultured in a humidified incubator containing 2.5% CO2 at 37°C.
B16 cells were incubated in 96-well microtiter plates in RPMI medium supplemented with 10% FBS until reach the semi-confluence and then treated with different concentrations of Gm and its analogues for 24 h. To investigate the mechanisms of Gm-induced cell death, B-16 cells were also pre-incubated with 40 µM cytochalasin D (Tocris, USA); 20 µM necrostatin-1 (Tocris, USA), 10 µM Z-VAD (Tocris, USA), 5 mM MβCD (Tocris, USA), and 100 µM chloroquine (Tocris, USA) for 1 h. Cell viability was determined using the standard reduction of the tetrazolium salt 3-(4,5-dimethylthiazol-2-yl)-2,5-diphenyltetrazolium bromide (MTT). The results were expressed relative to control cell viability (100%).

B16 cells = test: Peptide internalized into cells, biotinylated peptides, flow cytometry; format: cell-based, mouse; settings: for internal presence of peptide after 24 h: 2 µM biotinylated peptides; for Max. Internal Fluorescence: biotinylated peptides used, 2 µM, B16 cells, streptavidin-Alexa 647 (FL4) after fixation and saponin permeabilization, maximum over time course, mean ± SEM, three independent experiments
Description: Cells were treated with the 2 µM biotinylated peptide. Then, the melanoma cells (5×10^5 for flow cytometry or 5×10^3 cell seeded for confocal microscopy) were labeled with streptavidin-Alexa 488 (Invitrogen, USA) for 30 min at 4°C and washed with PBS. The cells were fixed with a solution of 2% paraformaldehyde for 30 min, washed with 0.1 M glycin, and permeabilized with 0.01% saponin. Then, the cells were labeled with streptavidin-Alexa 647 (Invitrogen, USA). For flow cytometry, the cells were extracted using PBS with 5 mM EDTA previously to fixation. The quantification of label of external biotynilated peptide, and intracellular peptide were performed by flow cytometry or confocal microscopy. For flow cytometry the cells were excited using argon laser (488 nm), and diode laser (633 nm). The emission was collected in FL-1 and FL-4 channel. A total of 10,000 events were collected per sample. For confocal microscopy, nuclei were stained with DAPI. Confocal microscopy analyses were performed with a confocal laser scanning microscope equipped with a Plan-Apochromat ×63 objective under oil immersion (Zeiss, LSM780). The pinhole device was adjusted to capture fluorescence of one airy unit. The images correspond to single focal plane. Streptavidin-Alexa Fluor 488 were excited using an argon laser (λEx. = 488 nm, λEm. = 505–550 nm), streptavidin-Alexa Fluor 647 was excited using a HeNe laser (λEx. = 633 nm, λEm. = 640–710 nm) and DAPI was excited using a multiphoton laser (Coherent) (λEx. = 750 nm, λEm. = 380–460 nm). Unviable cells were excluded with propidium iodide (PI) label.
We quantified the Gm and analogues binding to the cellular membrane, and their internalization using their biotinylated counterpart. […] Unviable cells were excluded by PI label (Figure S2). External peptides labeled with streptavidin Alexa Fluor 488 were identified for the quantification of the green fluorescence (FL1 channel), and internal peptides labeled with streptavidin Alexa Fluor 647 were identified for the quantification of the deep red fluorescence (FL4 channel), after permeabilization of cellular membrane, by Flow cytometry. […] On the other hand, the peptides that present lower cytotoxicity were not retained after 24 h (Figure 3A-F). However, a direct relation between binding, peptide entrance, and cytotoxicity effect was not full observed, the entrance into cells seem to be important to the action of several AMPs. To verify the participation of the entry of peptide with cytotoxicity cholesterol level cholesterol level was reduced incubating the cells with MβCD for 1 h, which increase the membrane fluidity. As expected, the treatment of the cells with MβCD increases the entry of peptide (Figure 3G) and increases the cytotoxicity of the peptides, except the analogue [Thr^2,6,11,15]-Gm (Figure 3H).

[2] = Resistance to degradation by lysosomal enzymes (LC/ESI-MS); format: in vitro ADME; settings: 37°C; for resistance to lysosomal enzyme degradation (in words): sonicated cells, pH 5 Tris buffer, different times, LC/ESI-MS (Figure 2B); for Peptide Degradation: sonicated cultured cells in pH 5 Tris buffer (lysosomal enzymes), incubation 1–14 h, starting peptide concentration 10^−4 M taken as 100%, LC/ESI-MS, mean ± SEM
Description: The cultured cells were resuspended using pH 5 Tris buffer, and then sonicated. Protein concentration was measured using the RC DC protein assay kit (Bio-Rad, CA, USA) according to the manufacturer’s instructions. The peptides were incubated with this protein solution for 1–14 h, and its stability was evaluated by reversed-phase liquid chromatography coupled with an electrospray ionization mass spectrometer (LC/ESI-MS).
Figure 2 Lysosomal enzymes participate in the cytotoxic reduction activities of the Gm analogues. (A, C and D) Cell viability was assessed by the MTT reduction test. (A) Cells were incubated with cytoskeletal inhibitor (cytochalasin D), and lysosomal inhibitor (chloroquine) for 1 h before to stimulation by Gm, and its analogues for 24 h. Chloroquine potentiated the cytotoxicity of peptides. (B) Since chloroquine was able to potentiate the cytotoxicity of the peptides, resistance to degradation of lysosomal enzymes was evaluated by LC/ESI-MS. Peptides were incubated at 37°C for different times. (C) Cells were incubated with the IC50 concentration for each peptide. Cytotoxic activities after 24 and 72 h of the peptide incubation were compared.

SMILES | pIC50 [1] | internal presence of peptide after 24 h (B16 cells) | Max. Internal Fluorescence (B16 cells) | resistance to lysosomal enzyme degradation (in words) [2] | Peptide Degradation [2] | fold less potent than Gm ([1]; B16 cells, MTT, ratio of potencies)
CC(C)C[C@@H](NC(=O)[C@@H](CCCNC(=N)N)NC(=O)[C@@H](CCCNC(=N)N)NC(=O)[C@H](NC(=O)[C@H]1CCC(=O)N1)[C@H](C)O)C(=O)N[C@@H](C(=O)N[C@H](Cc1ccc(O)cc1)C(=O)N[C@H](CCCCN)C(=O)N1CCC[C@H]1C(=O)N[C@H](CCCNC(=N)N)C(=O)N[C@@H](C(=O)N[C@@H](C(=O)N[C@@H](C(=O)N[C@H](Cc1ccc(O)cc1)C(=O)N[C@@H](C(=O)N[C@H](CCCNC(=N)N)C(=O)NCC(=O)N[C@H](CCCNC(=N)N)C(N)=O)[C@H](C)O)[C@H](C)O)C(C)C)[C@H](C)O)[C@H](C)O [[D-Thr^2,6,11,15, Pro^9]-D-Gm] ([d(pGlu)][dT][dR][dR][dL][dT][dY][dK]P[dR][dT][dV][dT][dY][dT][dR]G[dR]-NH2) | 4.12 | internal presence | 2751±190 AU | little affected by lysosomal enzymes | 15±2% | 
CC(C)C[C@@H](NC(=O)[C@@H](CCCNC(=N)N)NC(=O)[C@@H](CCCNC(=N)N)NC(=O)[C@H](NC(=O)[C@H]1CCC(=O)N1)[C@H](C)O)C(=O)N[C@@H](C(=O)N[C@H](Cc1ccc(O)cc1)C(=O)N[C@H](CCCCN)C(=O)N[C@H](CCC(N)=O)C(=O)N[C@H](CCCNC(=N)N)C(=O)N[C@@H](C(=O)N[C@@H](C(=O)N[C@@H](C(=O)N[C@H](Cc1ccc(O)cc1)C(=O)N[C@@H](C(=O)N[C@H](CCCNC(=N)N)C(=O)NCC(=O)N[C@H](CCCNC(=N)N)C(N)=O)[C@H](C)O)[C@H](C)O)C(C)C)[C@H](C)O)[C@H](C)O [[D-Thr^2,6,11,15]-D-Gm] ([d(pGlu)][dT][dR][dR][dL][dT][dY][dK][dQ][dR][dT][dV][dT][dY][dT][dR]G[dR]-NH2) | 4.60 | internal presence | 602±12 AU | little affected by lysosomal enzymes | 12±2% | 3.5 fold
CC(C)C[C@H](NC(=O)[C@H](CCCNC(=N)N)NC(=O)[C@H](CCCNC(=N)N)NC(=O)[C@H](CO)NC(=O)[C@@H]1CCC(=O)N1)C(=O)N[C@@H](CO)C(=O)N[C@@H](Cc1ccc(O)cc1)C(=O)N[C@@H](CCCCN)C(=O)N[C@@H](CCC(N)=O)C(=O)N[C@@H](CCCNC(=N)N)C(=O)N[C@@H](CO)C(=O)N[C@H](C(=O)N[C@H](C(=O)N[C@@H](Cc1ccc(O)cc1)C(=O)N[C@@H](CO)C(=O)N[C@@H](CCCNC(=N)N)C(=O)NCC(=O)N[C@@H](CCCNC(=N)N)C(N)=O)[C@@H](C)O)C(C)C [[Ser^2,6,11,15]-Gm] ([pGlu]SRRLSYKQRSVTYSRGR-NH2) | < 3.70 |  | 305±65 AU | most sensitive peptides to degradation | 47±5% | 
CC(C)C[C@H](NC(=O)[C@H](CCCNC(=N)N)NC(=O)[C@H](CCCNC(=N)N)NC(=O)[C@@H](NC(=O)[C@@H]1CCC(=O)N1)[C@@H](C)O)C(=O)N[C@H](C(=O)N[C@@H](Cc1ccc(O)cc1)C(=O)N[C@@H](CCCCN)C(=O)N1CCC[C@@H]1C(=O)N[C@@H](CCCNC(=N)N)C(=O)N[C@H](C(=O)N[C@H](C(=O)N[C@H](C(=O)N[C@@H](Cc1ccc(O)cc1)C(=O)N[C@H](C(=O)N[C@@H](CCCNC(=N)N)C(=O)NCC(=O)N[C@@H](CCCNC(=N)N)C(N)=O)[C@@H](C)O)[C@@H](C)O)C(C)C)[C@@H](C)O)[C@@H](C)O [[Thr^2,6,11,15, D-Pro^9]-Gm] ([pGlu]TRRLTYK[dP]RTVTYTRGR-NH2) | 4.05 | internal presence | 1165±27 AU | stable to enzymatic degradation | 16±1% | 
CC(C)C[C@H](NC(=O)[C@H](CCCNC(=N)N)NC(=O)[C@H](CCCNC(=N)N)NC(=O)[C@@H](NC(=O)[C@@H]1CCC(=O)N1)[C@@H](C)O)C(=O)N[C@H](C(=O)N[C@@H](Cc1ccc(O)cc1)C(=O)N[C@@H](CCCCN)C(=O)N[C@@H](CCC(N)=O)C(=O)N[C@@H](CCCNC(=N)N)C(=O)N[C@H](C(=O)N[C@H](C(=O)N[C@H](C(=O)N[C@@H](Cc1ccc(O)cc1)C(=O)N[C@H](C(=O)N[C@@H](CCCNC(=N)N)C(=O)NCC(=O)N[C@@H](CCCNC(=N)N)C(N)=O)[C@@H](C)O)[C@@H](C)O)C(C)C)[C@@H](C)O)[C@@H](C)O [[Thr^2,6,11,15]-Gm] ([pGlu]TRRLTYKQRTVTYTRGR-NH2) | < 3.70 |  | 753±175 AU | most sensitive peptides to degradation | 43±4% | 
